Experiments:
Assay type in all cases: in vivo
corn (Zea mays) [1] = test: Test G Pre-Emergence Protocol; details: Zea mays, pre-emergence, 312 h, evaluated after 13 days; for plant injury at 15.625 g/ha: 15.625 g ai/ha; for plant injury at 15.625 g/ha / plant injury at 250 g/ha: read-out: Corn damage rating (100=total damage to plant; 0=no damage to plant); for plant injury at 62.5 g/ha: 62.5 g ai/ha, 100=total damage to plant, 0=no damage to plant, read-out: plant damage rating, Corn; for plant injury at 250 g/ha: 250 g ai/ha
Outline: (§1)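 Test compound in 0.5% Tween 20 acetone/water (50:50) was applied at three rates (15.625, 62.5, 250 g/ha) to soil sown one day earlier. After 13 days plants were scored for injury, where 0 means unaffected and 100 means completely damaged.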

[2] = test system: velvetleaf (Abutilon theophrasti); test: Test G Pre-Emergence Protocol; details: Abutilon theophrasti, pre-emergence, 312 h, evaluated after 13 days; for pest or weed control at 15.625 g/ha: 15.625 g ai/ha; for pest or weed control at 15.625 g/ha / pest or weed control at 250 g/ha: read-out: Velvetleaf damage rating (100=total damage to plant; 0=no damage to plant); for pest or weed control at 62.5 g/ha: 62.5 g ai/ha, 100=total damage to plant, 0=no damage to plant, read-out: plant damage rating, Velvetleaf; for pest or weed control at 250 g/ha: 250 g ai/ha
Outline: as §1

[3] = test system: barnyardgrass (Echinochloa crus-galli); test: Test G Pre-Emergence Protocol; details: Echinochloa crus-galli, pre-emergence, 312 h, evaluated after 13 days; for pest or weed control at 15.625 g/ha: 15.625 g ai/ha, read-out: Barnyard grass damage rating (100=total damage to plant; 0=no damage to plant); for pest or weed control at 62.5 g/ha: 62.5 g ai/ha, 100=total damage to plant, 0=no damage to plant, read-out: plant damage rating, Barnyardgrass; for pest or weed control at 250 g/ha: 250 g ai/ha, read-out: Barnyardgrass damage rating (100=total damage to plant; 0=no damage to plant)
Outline: as §1

[4] = test system: redroot pigweed (Amaranthus retroflexus); test: Test G Pre-Emergence Protocol; details: Amaranthus retroflexus, pre-emergence, 312 h, evaluated after 13 days; for pest or weed control at 15.625 g/ha: 15.625 g ai/ha; for pest or weed control at 15.625 g/ha / pest or weed control at 250 g/ha: read-out: Pigweed, Redroot damage rating (100=total damage to plant; 0=no damage to plant); for pest or weed control at 62.5 g/ha: 62.5 g ai/ha, 100=total damage to plant, 0=no damage to plant, read-out: plant damage rating, Pigweed, Redroot; for pest or weed control at 250 g/ha: 250 g ai/ha
Outline: as §1

[5] = test system: ivy-leaved morning glory (Ipomoea hederacea); test: Test G Pre-Emergence Protocol; details: Ipomoea, pre-emergence, 312 h, evaluated after 13 days; for pest or weed control at 15.625 g/ha: 15.625 g ai/ha, read-out: Morning-glory, Ivy-leaved damage rating (100=total damage to plant; 0=no damage to plant); for pest or weed control at 62.5 g/ha: 62.5 g ai/ha, 100=total damage to plant, 0=no damage to plant, read-out: plant damage rating, Morningglory, Ivy-leaved; for pest or weed control at 250 g/ha: 250 g ai/ha, read-out: Morningglory, Ivy-leaved damage rating (100=total damage to plant; 0=no damage to plant)
Outline: as §1

[6] = test system: giant foxtail (Setaria faberi); test: Test G Pre-Emergence Protocol; details: Setaria faberi, pre-emergence, 312 h, evaluated after 13 days; for pest or weed control at 15.625 g/ha: 15.625 g ai/ha; for pest or weed control at 15.625 g/ha / pest or weed control at 250 g/ha: read-out: Foxtail, Giant damage rating (100=total damage to plant; 0=no damage to plant); for pest or weed control at 62.5 g/ha: 62.5 g ai/ha, 100=total damage to plant, 0=no damage to plant, read-out: plant damage rating, Foxtail, Giant; for pest or weed control at 250 g/ha: 250 g ai/ha
Outline: as §1

corn (Zea mays) [7] = test: Test G Post-Emergence Protocol; details: Zea mays, post-emergence, 312 h; for plant injury at 15.625 g/ha: 15.625 g ai/ha, evaluated after 13 days (100=total damage to plant; 0=no damage to plant), read-out: Corn damage rating; for plant injury at 62.5 g/ha: 62.5 g ai/ha, read-out: Corn damage rating (100=total damage to plant; 0=no damage to plant); for plant injury at 62.5 g/ha / plant injury at 250 g/ha: evaluated after 13 days; for plant injury at 250 g/ha: 250 g ai/ha, read-out: damage to plant, Corn (100=total damage to plant; 0=no damage to plant)
Outline: (§2)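 A glasshouse post-emergence test: 8-day-old plants sprayed at 15.625, 62.5 or 250 g/ha, then grown at 24/16 °C day/night with 14 h light and 65% humidity. Damage rated 13 days later, 0–100.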

[8] = test system: velvetleaf (Abutilon theophrasti); test: Test G Post-Emergence Protocol; details: Abutilon theophrasti, post-emergence, 312 h; for pest or weed control at 15.625 g/ha: 15.625 g ai/ha, evaluated after 13 days (100=total damage to plant; 0=no damage to plant), read-out: Velvetleaf damage rating; for pest or weed control at 62.5 g/ha: 62.5 g ai/ha, read-out: Velvetleaf damage rating (100=total damage to plant; 0=no damage to plant); for pest or weed control at 62.5 g/ha / pest or weed control at 250 g/ha: evaluated after 13 days; for pest or weed control at 250 g/ha: 250 g ai/ha, read-out: damage to plant, Velvetleaf (100=total damage to plant; 0=no damage to plant)
Outline: as §2

[9] = test system: barnyardgrass (Echinochloa crus-galli); test: Test G Post-Emergence Protocol; details: Echinochloa crus-galli, post-emergence, 312 h; for pest or weed control at 15.625 g/ha: 15.625 g ai/ha, evaluated after 13 days (100=total damage to plant; 0=no damage to plant), read-out: Barnyardgrass damage rating; for pest or weed control at 62.5 g/ha: 62.5 g ai/ha, read-out: Barnyardgrass damage rating (100=total damage to plant; 0=no damage to plant); for pest or weed control at 62.5 g/ha / pest or weed control at 250 g/ha: evaluated after 13 days; for pest or weed control at 250 g/ha: 250 g ai/ha, read-out: damage to plant, Barnyardgrass (100=total damage to plant; 0=no damage to plant)
Outline: as §2

[10] = test system: redroot pigweed (Amaranthus retroflexus); test: Test G Post-Emergence Protocol; details: Amaranthus retroflexus, post-emergence, 312 h; for pest or weed control at 15.625 g/ha: 15.625 g ai/ha, evaluated after 13 days (100=total damage to plant; 0=no damage to plant), read-out: Pigweed, Redroot damage rating; for pest or weed control at 62.5 g/ha: 62.5 g ai/ha, read-out: Pigweed, Redroot damage rating (100=total damage to plant; 0=no damage to plant); for pest or weed control at 62.5 g/ha / pest or weed control at 250 g/ha: evaluated after 13 days; for pest or weed control at 250 g/ha: 250 g ai/ha, read-out: damage to plant, Pigweed, Redroot (100=total damage to plant; 0=no damage to plant)
Outline: as §2

[11] = test system: ivy-leaved morning glory (Ipomoea hederacea); test: Test G Post-Emergence Protocol; details: Ipomoea, post-emergence, 312 h; for pest or weed control at 15.625 g/ha: 15.625 g ai/ha, evaluated after 13 days (100=total damage to plant; 0=no damage to plant), read-out: Morningglory, Ivy-leaved damage rating; for pest or weed control at 62.5 g/ha: 62.5 g ai/ha, read-out: Morningglory, Ivy-leaved damage rating (100=total damage to plant; 0=no damage to plant); for pest or weed control at 62.5 g/ha / pest or weed control at 250 g/ha: evaluated after 13 days; for pest or weed control at 250 g/ha: 250 g ai/ha, read-out: damage to plant, Morningglory, Ivy-leaved (100=total damage to plant; 0=no damage to plant)
Outline: as §2

[12] = test system: giant foxtail (Setaria faberi); test: Test G Post-Emergence Protocol; details: Setaria faberi, post-emergence, 312 h; for pest or weed control at 15.625 g/ha: 15.625 g ai/ha, evaluated after 13 days (100=total damage to plant; 0=no damage to plant), read-out: Foxtail, Giant damage rating; for pest or weed control at 62.5 g/ha: 62.5 g ai/ha, read-out: Foxtail, Giant damage rating (100=total damage to plant; 0=no damage to plant); for pest or weed control at 62.5 g/ha / pest or weed control at 250 g/ha: evaluated after 13 days; for pest or weed control at 250 g/ha: 250 g ai/ha, read-out: damage to plant, Foxtail, Giant (100=total damage to plant; 0=no damage to plant)
Outline: as §2

COc1cncc(NC(=O)[C@@H]2C(=O)N(C)C[C@H]2c2ccc(C(F)(F)F)cc2)n1 (racemic) [Compound 1565]
60%: pest or weed control at 250 g/ha [6]
50%: pest or weed control at 250 g/ha [12]
10%: pest or weed control at 250 g/ha [3] | pest or weed control at 250 g/ha [4] | plant injury at 250 g/ha (corn (Zea mays) [7]) | pest or weed control at 250 g/ha [9]
30%: pest or weed control at 250 g/ha [8]
0%: plant injury at 15.625 g/ha (corn (Zea mays) [1]) | plant injury at 62.5 g/ha (corn (Zea mays) [1]) | plant injury at 250 g/ha (corn (Zea mays) [1]) | pest or weed control at 15.625 g/ha [2] | pest or weed control at 62.5 g/ha [2] | pest or weed control at 250 g/ha [2] | pest or weed control at 15.625 g/ha [3] | pest or weed control at 62.5 g/ha [3] | pest or weed control at 15.625 g/ha [4] | pest or weed control at 62.5 g/ha [4] | pest or weed control at 15.625 g/ha [5] | pest or weed control at 62.5 g/ha [5] | pest or weed control at 250 g/ha [5] | pest or weed control at 15.625 g/ha [6] | pest or weed control at 62.5 g/ha [6] | plant injury at 15.625 g/ha (corn (Zea mays) [7]) | plant injury at 62.5 g/ha (corn (Zea mays) [7]) | pest or weed control at 15.625 g/ha [8] | pest or weed control at 62.5 g/ha [8] | pest or weed control at 15.625 g/ha [9] | pest or weed control at 62.5 g/ha [9] | pest or weed control at 15.625 g/ha [10] | pest or weed control at 62.5 g/ha [10] | pest or weed control at 250 g/ha [10] | pest or weed control at 15.625 g/ha [11] | pest or weed control at 62.5 g/ha [11] | pest or weed control at 250 g/ha [11] | pest or weed control at 15.625 g/ha [12] | pest or weed control at 62.5 g/ha [12]

CN1C[C@@H](c2ccc(C(F)(F)F)cc2)[C@H](C(=O)Nc2cnnc(Cl)c2Cl)C1=O (racemic) [Compound 1567]
0%: plant injury at 15.625 g/ha (corn (Zea mays) [1]) | plant injury at 62.5 g/ha (corn (Zea mays) [1]) | plant injury at 250 g/ha (corn (Zea mays) [1]) | pest or weed control at 15.625 g/ha [2] | pest or weed control at 62.5 g/ha [2] | pest or weed control at 250 g/ha [2] | pest or weed control at 15.625 g/ha [3] | pest or weed control at 62.5 g/ha [3] | pest or weed control at 250 g/ha [3] | pest or weed control at 15.625 g/ha [4] | pest or weed control at 62.5 g/ha [4] | pest or weed control at 250 g/ha [4] | pest or weed control at 15.625 g/ha [5] | pest or weed control at 62.5 g/ha [5] | pest or weed control at 250 g/ha [5] | pest or weed control at 15.625 g/ha [6] | pest or weed control at 62.5 g/ha [6] | pest or weed control at 250 g/ha [6] | plant injury at 15.625 g/ha (corn (Zea mays) [7]) | plant injury at 62.5 g/ha (corn (Zea mays) [7]) | plant injury at 250 g/ha (corn (Zea mays) [7]) | pest or weed control at 15.625 g/ha [8] | pest or weed control at 62.5 g/ha [8] | pest or weed control at 250 g/ha [8] | pest or weed control at 15.625 g/ha [9] | pest or weed control at 62.5 g/ha [9] | pest or weed control at 15.625 g/ha [10] | pest or weed control at 62.5 g/ha [10] | pest or weed control at 250 g/ha [10] | pest or weed control at 15.625 g/ha [11] | pest or weed control at 62.5 g/ha [11] | pest or weed control at 250 g/ha [11] | pest or weed control at 15.625 g/ha [12] | pest or weed control at 62.5 g/ha [12] | pest or weed control at 250 g/ha [12]
10%: pest or weed control at 250 g/ha [9]
